Source: patent publication US9868692B2, “Compounds and compositions for intracellular delivery of therapeutic agents” (MODERNATX, Inc., priority 2015, dated 2018)

Assays:
[1] = Particle size, polydispersity index (and zeta potential) of nanoparticle compositions, Zetasizer Nano ZS; assay type: physicochemical; details: Table 1A formulations
Text: Nanoparticle compositions may be characterized by a variety of methods. For example, microscopy (e.g., transmission electron microscopy or scanning electron microscopy) may be used to examine the morphology and size distribution of a nanoparticle composition. Dynamic light scattering or potentiometry (e.g., potentiometric titrations) may be used to measure zeta potentials. Dynamic light scattering may also be utilized to determine particle sizes. Instruments such as the Zetasizer Nano ZS (Malvern Instruments Ltd, Malvern, Worcestershire, UK) may also be used to measure multiple characteristics of a nanoparticle composition, such as particle size, polydispersity index, and zeta potential.
A Zetasizer Nano ZS (Malvern Instruments Ltd, Malvern, Worcestershire, UK) can be used to determine the particle size, the polydispersity index (PDI) and the zeta potential of the nanoparticle compositions in 1×PBS in determining particle size and 15 mM PBS in determining zeta potential.

[2] = Encapsulation efficiency of RNA, QUANT-IT RIBOGREEN RNA assay; assay type: physicochemical; details: Table 1A formulations
Text: The efficiency of encapsulation of a therapeutic and/or prophylactic describes the amount of therapeutic and/or prophylactic that is encapsulated or otherwise associated with a nanoparticle composition after preparation, relative to the initial amount provided. The encapsulation efficiency is desirably high (e.g., close to 100%). The encapsulation efficiency may be measured, for example, by comparing the amount of therapeutic and/or prophylactic in a solution containing the nanoparticle composition before and after breaking up the nanoparticle composition with one or more organic solvents or detergents. Fluorescence may be used to measure the amount of free therapeutic and/or prophylactic (e.g., RNA) in a solution. For the nanoparticle compositions described herein, the encapsulation efficiency of a therapeutic and/or prophylactic may be at least 50%, for example 50%, 55%, 60%, 65%, 70%, 75%, 80%, 85%, 90%, 91%, 92%, 93%, 94%, 95%, 96%, 97%, 98%, 99%, or 100%. In some embodiments, the encapsulation efficiency may be at least 80%. In certain embodiments, the encapsulation efficiency may be at least 90%.
For nanoparticle compositions including an RNA, a QUANT-IT™ RIBOGREEN® RNA assay (Invitrogen Corporation Carlsbad, Calif.) can be used to evaluate the encapsulation of an RNA by the nanoparticle composition. The samples are diluted to a concentration of approximately 5 μg/mL in a TE buffer solution (10 mM Tris-HCl, 1 mM EDTA, pH 7.5). 50 μL of the diluted samples are transferred to a polystyrene 96 well plate and either 50 μL of TE buffer or 50 μL of a 2% Triton X-100 solution is added to the wells. The plate is incubated at a temperature of 37° C. for 15 minutes. The RIBOGREEN® reagent is diluted 1:100 in TE buffer, and 100 μL of this solution is added to each well. The fluorescence intensity can be measured using a fluorescence plate reader (Wallac Victor 1420 Multilablel Counter; Perkin Elmer, Waltham, Mass.) at an excitation wavelength of, for example, about 480 nm and an emission wavelength of, for example, about 520 nm. The fluorescence values of the reagent blank are subtracted from that of each of the samples and the percentage of free RNA is determined by dividing the fluorescence intensity of the intact sample (without addition of Triton X-100) by the fluorescence value of the disrupted sample (caused by the addition of Triton X-100).

[3] = Residual lipid level in liver of rats (UPLC-MS quantification); assay type: in vivo; details: rat, liver, iv, intravenous, 48 hours, read-out: Liver level
Protocol: (§1) To pre-weighed tissues, Milli-Q water was added (900 μL water per 100 mg tissue). Tissues were homogenized using an Omni probe homogenizer until uniform. 50 μL of samples and matrix calibration standards were aliquoted into a 96-well plate. 50 μL of blank matrix for matrix blanks and control blanks were aliquoted. 400 μL IS spiking solution were manually added to all samples except matrix blanks. 400 μL of 50:50 ACN:IPA were manually added to matrix blanks. The plate was covered and the samples vortexed and centrifuged for 5 minutes at >3000 rpm. 200 μL of the samples were transferred into a clean 96-well plate for analysis. […] Detection was based on electrospray ionization (ESI) in positive mode using a Sciex API5500 Mass Spectrometer.
(§2) The expression of hEPO in rats intravenously administered a nanoparticle composition at a dose of 0.2 mpk or 2.0 mpk was measured at 6 hours. […] Liver and spleen levels represent the average values calculated for 3 rats in each group.
(§3) The expression of hEPO and lipid levels in the liver and spleen in rats intravenously administered a nanoparticle composition at a dose of 0.2 mpk was measured at various timepoints. […] Lipids were formulated according to the standard MC3 formulation described above.

[4] = Residual lipid level in spleen of rats (UPLC-MS quantification); assay type: in vivo; details: rat, iv, 48 hours, read-out: Spleen level
Protocol: as §1, §2, §3

[5] = Lipid clearance: % dose remaining in liver after administration of Luc formulations; assay type: in vivo, mice; details: Table 3D

PDI [1]	EE (%) [2]	% Dose Remaining in Liver 6h ([5]; first column of this head)	% Dose Remaining in Liver 6h ([5]; second column of this head)	SMILES	other results
0.110	96.86%			CCCCCCCCC(CC)OC(=O)CCCCCCCN(CCO)CCCCCCCC(=O)OC(CCCCCCCC)CCCCCCCC (stereo not drawn) [Compound 49, heptadecan-9-yl 8-((2-hydroxyethyl)(8-oxo-8-(undecan-3-yloxy)octyl)amino)octanoate]	concentration at 48 h ([3]; 0.2 mg/kg, 0.2 mpk): 6490 ng/g; concentration at 48 h ([3]; 2 mg/kg, 2 mpk): 61400 ng/g; concentration at 48 h ([4]; 0.2 mg/kg, 0.2 mpk): 0.36; concentration at 48 h ([4]; 2 mg/kg, 2 mpk): 0.37
0.15	99%			CCCCCCCCCOC(=O)CCCCCCCN(CCCCCCCC(=O)OC(CCCCCCCC)CCCCCCCC)CCCNC(=S)NC [Compound 113, Heptadecan-9-yl 8-((3-(3-methylthioureido)propyl)(8-(nonyloxy)-8-oxooctyl)amino)octanoate]	
0.14	98.2%			CCCCCCCCC(CCCCCCCC)OC(=O)CCCCCCCN(CCO)CCCCCC(=O)OC(CCCCCCCC)C1CC1 (stereo not drawn) [Compound 128, Heptadecan-9-yl 8-((6-((1-cyclopropylnonyl)oxy)-6-oxohexyl)(2-hydroxyethyl)amino)octanoate]	
		<1%	<1%	CCCCCCCCCC(=O)OCCCCCCCN(CCO)CCCCCCCOC(=O)C(CCCCCCCC)CCCCCCCC [Compound 151, 7-((7-(Decanoyloxy)heptyl)(2-hydroxyethyl)amino)heptyl 2-octyldecanoate]	
0.072	98.90%			CCCCCCCCCOC(=O)CCCCCCCN(CCCCCCCC(=O)OC(CCCCCCCC)CCCCCCCC)C(CO)CO [Compound 156, Heptadecan-9-yl 8-((1,3-dihydroxypropan-2-yl)(8-(nonyloxy)-8-oxooctyl)amino)octanoate]	
0.18	99.04%			CCCCCCCCCOC(=O)CCCCCCCN(CCCCCCCC(=O)OC(CCCCCCCC)CCCCCCCC)CCCNc1c(N(C)C)c(=O)c1=O [Compound 169, Heptadecan-9-yl 8-((3-((2-(dimethylamino)-3,4-dioxocyclobut-1-en-1-yl)amino)propyl)(8-(nonyloxy)-8-oxooctyl)amino)octanoate]	

Continued, compound first:

SMILES	PDI [1]	EE (%) [2]	% Dose Remaining in Liver 6h ([5]; first column of this head)	% Dose Remaining in Liver 6h ([5]; second column of this head)	other results
CCCCCCCCC(CC)OC(=O)CCCN(CCO)CCCCCCCC(=O)OC(CCCCCCCC)CCCCCCCC (stereo not drawn) [Compound 72, Heptadecan-9-yl 8-((2-hydroxyethyl)(4-oxo-4-(undecan-3-yloxy)butyl)amino)octanoate]	0.11	97.3%			
CCCCCCCCC(CC)OC(=O)CCCCCN(CCO)CCCCCCCC(=O)OC(CCCCCCCC)CCCCCCCC (stereo not drawn) [Compound 75, Heptadecan-9-yl 8-((2-hydroxyethyl)(6-oxo-6-(undecan-3-yloxy)hexyl)amino)octanoate]	0.10	98.1%			
CCCCCCCCCC(=O)OCCCCCCCN(CCO)CCCCCCCC(=O)OC(CCCCCCCC)CCCCCCCC [Compound 96, 7-((8-(Heptadecan-9-yloxy)-8-oxooctyl)(2-hydroxyethyl)amino)heptyl decanoate]			<1%	<1%	
CCCCCCCCCOC(=O)CCCCCCCN(CCCCCCCC(=O)OC(CCCCCCCC)CCCCCCCC)CCCNC(=O)N(C)C [Compound 110, Heptadecan-9-yl 8-((3-(3,3-dimethylureido)propyl)(8-(nonyloxy)-8-oxooctyl)amino)octanoate]	0.13	97.4%			
CCCCCCCCCOC(=O)CCCCCCCN(CCCCCCCC(=O)OC(CCCCCCCC)CCCCCCCC)CCCNC(=S)N(C)C [Compound 111, Heptadecan-9-yl 8-((3-(3,3-dimethylthioureido)propyl)(8-(nonyloxy)-8-oxooctyl)amino)octanoate]	0.14	98.2%			
CCCCCCCCC(CCCCCCCC)OC(=O)CCCCCCCN(CCO)CCCCCCCC(=O)OCC(CCCCCCC)OC (stereo not drawn) [Compound 148, Heptadecan-9-yl 8-((2-hydroxyethyl)(8-((2-methoxynonyl)oxy)-8-oxooctyl)amino)octanoate]			<1%	<1%	
CCCCCCCCC(CCCCCCCC)OC(=O)CCCCCCCN(C)CCCCCCCCCCCC(=O)OCCCCC [Compound 150, Pentyl 12-((8-(heptadecan-9-yloxy)-8-oxooctyl)(methyl)amino)dodecanoate]			<1%	<1%	
CCCCCCCCCOC(=O)CCCCCCCN(CCO)CCCCCCCCCC(CCCCCCCC)CCCCCCCC [Compound 153, Nonyl 8-((2-hydroxyethyl)(10-octyloctadecyl)amino)octanoate]			<1%	<1%	
CCCCCCCCCOC(=O)CCCCCCCN(CCCCCCCC(=O)OC(CCCCCCCC)CCCCCCCC)C(C)CO (stereo not drawn) [Compound 157, Heptadecan-9-yl 8-((1-hydroxypropan-2-yl)(8-(nonyloxy)-8-oxooctyl)amino)octanoate]	0.096		<1%	<1%	
CCCCCCCCCOC(=O)CCCCCCCN(CCCCCCCC(=O)OC(CCCCCCCC)CCCCCCCC)CCCN/C(=C/[N+](=O)[O-])NC [Compound 170, Heptadecan-9-yl (E)-8-((3-((1-(methylamino)-2-nitrovinyl)amino)propyl)(8-(nonyloxy)-8-oxooctyl)amino)octanoate]	0.12	98.24%			
CCCCCCCCCOC(=O)CCCCCCCN(CCCCCCCC(=O)OC(CCCCCCCC)CCCCCCCC)CCCN1C(=O)CNC1=O [Compound 174, Heptadecan-9-yl 8-((3-(2,5-dioxoimidazolidin-1-yl)propyl)(8-(nonyloxy)-8-oxooctyl)amino)octanoate]	0.12	98.52%			
